Here are results for twelve compounds from US6093731A, “Isoquinolines” (priority 1999, dated 2000).

pKi: −log10 of the molar value. Structures can show the parent of a compound that is named as a salt. A value given as a limit tells only on which side of the number the result lay.

One assay deals with T1, human urokinase (Homo sapiens, UniProt P00749).
T1 construct: the urokinase used was HMWT Human Urokinase (Calbiochem 672081); purchased Calbiochem 672081
Description: urokinase inhibition assay (S-2444 substrate).
Details: not given
The assay is classed as biochemical.
What is called pKi is the Ki on a negative log10 scale, so that one unit is a factor of ten. Consider `NC(N)=Nc1ncc(Cl)c2ccc(S(=O)(=O)NC3(C(=O)O)CCCCC3)cc12` [43(b), 1-{[(4-Chloro-1-guanidino-7-isoquinolinyl)sulphonyl]amino}cyclohexanecarboxylic acid hydrochloride], for which the negative-log Ki (pKi) is at least 7.70.

In turn, `NC(N)=Nc1ncc(Cl)c2ccc(S(=O)(=O)N3CCC[C@@H]3C(=O)O)cc12` [Example 32(b), N-[(4-Chloro-1-guanidino-7-isoquinolinyl)sulphonyl]-D-proline hydrochloride] had a pKi of at least 7.70.

`NC(N)=Nc1ncc(Cl)c2ccc(S(=O)(=O)NC3(C(=O)N4CCOCC4)CCCC3)cc12` [Example 78, 4-Chloro-1-guanidino-N-[1-(morpholinocarbonyl)cyclopentyl]-7-isoquinolinesulphonamide hydrochloride]: the pKi was at least 7.70.

`CN1CCN(C(=O)C2(NS(=O)(=O)c3ccc4c(Cl)cnc(N=C(N)N)c4c3)CCCC2)CC1` [Example 79, 4-Chloro-1-guanidino-N-{1-[(4-methylpiperazino)carbonyl]cyclopentyl}-7-isoquinolinesulphonamide dihydrochloride] had a pKi of at least 7.70.

The same assay, now with this note: read-out: Ki values vs. urokinase.
Turning to `NC(N)=Nc1ncc(Cl)c2ccc(S(=O)(=O)NC3(C(=O)O)CCCC3)cc12` [37(b), N-[(4-Chloro-1-guanidino-7-isoquinolinyl)sulphonyl]cycloleucine], the negative-log Ki (pKi) is at least 7.70.

Turning to `CN(C)CCN(C1(C(=O)O)CCCC1)S(=O)(=O)c1ccc2c(Br)cnc(NC(=N)N)c2c1` [84(b), N-({4-Bromo-1-guanidino-7-isoquinolinyl}sulphonyl)-N-[2-(dimethylamino)ethyl]cycloleucine dihydrochloride], the negative-log Ki (pKi) is at least 7.70.

Regarding `NC(N)=Nc1ncc(Cl)c2ccc(S(=O)(=O)NC3(C(=O)NCCO)CCCC3)cc12` [Example 38, 1-{[(4-Chloro-1-guanidino-7-isoquinolinyl)sulphonyl]amino}-N-(2-hydroxyethyl)cyclopentanecarboxamine hydrochloride], the pKi was at least 7.70.

Consider `CN(C)CCNC(=O)C1(NS(=O)(=O)c2ccc3c(Cl)cnc(N=C(N)N)c3c2)CCCC1` [Example 39(a), 1-{[(4-Chloro-1-guanidino-7-isoquinolinyl)sulphonyl]amino}-N-[2-(dimethylamino)ethyl]cyclopentanecarboxamine], for which the pKi is at least 7.70.

For `CN(CCO)C(=O)C1(NS(=O)(=O)c2ccc3c(Cl)cnc(NC(=N)N)c3c2)CCCC1` [Example 75, 1-[({4-Chloro-1-guanidino-7-isoquinolinyl}sulphonyl)amino]-N-(2-hydroxyethyl)-N-methylcyclopentanecarboxamide hydrochloride], the pKi was at least 7.70.

Consider `COCCNC(=O)C1(NS(=O)(=O)c2ccc3c(Cl)cnc(NC(=N)N)c3c2)CCCC1` [Example 76, 1-[({4-Chloro-1-guanidino-7-isoquinolinyl}sulphonyl)amino]-N-(2-methoxyethyl)cyclopentanecarboxamide hydrochloride], for which the pKi is at least 7.70.

Consider `N=C(N)Nc1ncc(Cl)c2ccc(S(=O)(=O)N(CCOC3CCCCO3)C3(C(=O)O)CCCC3)cc12` (stereo not drawn) [Example 87(b), 1-{[(4-Chloro-1-guanidino-7-isoquinolinyl)sulphonyl][2-(tetrahydro-2H-pyran-2-yloxy)ethyl]amino}cyclopentanecarboxylic acid], for which the pKi is at least 7.70.

For `NC(N)=Nc1ncc(Cl)c2ccc(S(=O)(=O)N3CCOC(=O)C34CCCC4)cc12` [Example 87(c), N"-{4-Chloro-7-[(10-oxo-9-oxa-6-azaspiro [4.5]dec-6-yl)sulphonyl]-1-isoquinolinyl}guanidine hydrochloride], the pKi was at least 7.70.
